Results published in ChEMBL document CHEMBL1158539, “Synthesis and biological activity of 2H-quinolizin-2-one based p38alpha MAP kinase inhibitors” (Bioorg Med Chem Lett, 2010).
Activity calls are given as the source filed them. No cut-off for these calls is given here.

Assays:
[1] = target: T1, Nuclear receptor subfamily 1 group I member 2 (Homo sapiens, UniProt O75469); test: Activation of PXR
T1 sequence (O75469 whole entry): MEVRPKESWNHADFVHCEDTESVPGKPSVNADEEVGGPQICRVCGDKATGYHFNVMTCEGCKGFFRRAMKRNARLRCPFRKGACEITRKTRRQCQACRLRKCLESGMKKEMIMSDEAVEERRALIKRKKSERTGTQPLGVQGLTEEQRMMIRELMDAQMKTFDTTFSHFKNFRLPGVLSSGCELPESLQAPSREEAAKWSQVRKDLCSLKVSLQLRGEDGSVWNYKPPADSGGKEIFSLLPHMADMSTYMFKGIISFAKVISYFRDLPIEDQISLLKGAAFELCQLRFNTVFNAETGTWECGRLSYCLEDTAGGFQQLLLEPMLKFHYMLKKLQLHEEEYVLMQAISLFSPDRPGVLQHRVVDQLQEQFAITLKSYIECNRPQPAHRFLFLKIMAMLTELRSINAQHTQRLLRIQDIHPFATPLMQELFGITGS

[2] = tested on: THP-1; test: cells; details: Homo sapiens, THP-1, 4 h
Description: Inhibition of LPS-induced TNFalpha production in human THP1 cells after 4 hrs by ELISA

[3] = tested on: Blood; test: tissue or blood; details: Homo sapiens
Description: (§1) Inhibition of LPS-induced TNFalpha production in human whole blood

[4] = target: Mitogen-activated protein kinase 14 (Mus musculus, UniProt P47811)
Sequence of Mitogen-activated protein kinase 14 (P47811 whole entry): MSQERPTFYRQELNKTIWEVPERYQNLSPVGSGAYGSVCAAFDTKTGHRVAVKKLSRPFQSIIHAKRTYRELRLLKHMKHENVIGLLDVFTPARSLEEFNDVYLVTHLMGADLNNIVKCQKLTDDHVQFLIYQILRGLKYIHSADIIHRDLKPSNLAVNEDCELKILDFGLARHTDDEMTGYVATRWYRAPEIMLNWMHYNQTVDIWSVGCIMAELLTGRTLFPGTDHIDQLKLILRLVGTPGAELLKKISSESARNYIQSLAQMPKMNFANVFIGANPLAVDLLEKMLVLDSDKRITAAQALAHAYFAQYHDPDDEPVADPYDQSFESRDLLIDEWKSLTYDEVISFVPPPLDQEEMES
Description: Inhibition of mouse p38alpha after 3 hrs by SPA method

[5] = tested on: Blood
Description: as §1

[6] = Lipophilicity, log D of the compound; assay type: physicochemical; details: octanol/water
[7] = Half life in monkey; assay type: ADME, organism-based, Macaca mulatta; details: rhesus monkey, in vivo
[8] = Half life in dog; assay type: ADME, organism-based, Canis lupus familiaris; details: in vivo
[9] = Displacement of labeled diltiazem from calcium channel in guinea-pig hind limb skeletal muscle homogenates
[10] = target: Voltage-gated inwardly rectifying potassium channel KCNH2 (Homo sapiens, UniProt Q12809)
Sequence of Voltage-gated inwardly rectifying potassium channel KCNH2 (Q12809 whole entry): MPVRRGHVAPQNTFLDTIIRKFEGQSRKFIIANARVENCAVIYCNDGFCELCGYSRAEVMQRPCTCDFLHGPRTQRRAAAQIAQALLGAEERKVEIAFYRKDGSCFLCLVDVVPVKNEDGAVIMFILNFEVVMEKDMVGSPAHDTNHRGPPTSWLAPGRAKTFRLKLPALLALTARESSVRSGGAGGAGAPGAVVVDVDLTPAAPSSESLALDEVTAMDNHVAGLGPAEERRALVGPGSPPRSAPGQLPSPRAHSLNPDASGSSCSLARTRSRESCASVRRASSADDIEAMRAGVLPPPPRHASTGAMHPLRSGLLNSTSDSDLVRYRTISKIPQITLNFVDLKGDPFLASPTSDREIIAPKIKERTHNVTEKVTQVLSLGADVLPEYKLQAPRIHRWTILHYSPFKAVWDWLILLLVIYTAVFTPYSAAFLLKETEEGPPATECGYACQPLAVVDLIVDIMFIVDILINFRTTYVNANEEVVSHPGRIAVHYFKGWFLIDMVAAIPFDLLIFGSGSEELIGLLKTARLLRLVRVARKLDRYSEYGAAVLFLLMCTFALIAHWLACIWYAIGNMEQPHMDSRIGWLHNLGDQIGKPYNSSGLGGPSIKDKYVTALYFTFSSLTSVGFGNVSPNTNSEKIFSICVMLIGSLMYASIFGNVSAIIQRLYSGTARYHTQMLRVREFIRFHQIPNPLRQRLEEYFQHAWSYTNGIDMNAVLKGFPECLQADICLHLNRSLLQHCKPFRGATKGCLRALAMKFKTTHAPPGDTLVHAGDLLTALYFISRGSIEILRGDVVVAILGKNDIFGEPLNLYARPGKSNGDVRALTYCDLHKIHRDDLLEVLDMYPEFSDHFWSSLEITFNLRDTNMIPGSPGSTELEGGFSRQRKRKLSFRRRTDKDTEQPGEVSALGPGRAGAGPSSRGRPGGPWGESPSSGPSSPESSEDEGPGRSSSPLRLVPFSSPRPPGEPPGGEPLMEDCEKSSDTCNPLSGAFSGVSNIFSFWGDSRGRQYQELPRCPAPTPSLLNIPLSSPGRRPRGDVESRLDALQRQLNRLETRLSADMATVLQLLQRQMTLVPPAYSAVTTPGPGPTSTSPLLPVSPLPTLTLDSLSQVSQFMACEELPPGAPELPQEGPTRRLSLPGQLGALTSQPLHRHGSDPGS
Description: Displacement of labeled MK-499 from human ERG in HEK293 cells

[11] = AUC in monkey at 0.25 mg/kg, iv and 2 mg/kg, po; assay type: ADME, organism-based, Macaca mulatta; details: rhesus monkey, plasma
[12] = Clearance in monkey at 0.25 mg/kg, iv and 2 mg/kg, po; assay type: ADME, organism-based, Macaca mulatta; details: rhesus monkey, in vivo
[13] = Oral bioavailability in monkey at 2 mg/kg; assay type: ADME, organism-based, Macaca mulatta; details: rhesus monkey, in vivo
[14] = Half life in monkey at 0.25 mg/kg, iv and 2 mg/kg, po; assay type: ADME, organism-based, Macaca mulatta; details: rhesus monkey, in vivo
[15] = Half life in rat at 1 mg/kg, iv and 2 mg/kg, po; assay type: ADME, organism-based; details: in vivo
[16] = Oral bioavailability in rat at 2 mg/kg; assay type: ADME, organism-based; details: in vivo
[17] = AUC in rat at 1 mg/kg, iv and 2 mg/kg, po; assay type: ADME, organism-based; details: plasma
[18] = Oral bioavailability in dog at 2 mg/kg; assay type: ADME, organism-based, Canis lupus familiaris; details: in vivo
[19] = Clearance in rat at 1 mg/kg, iv and 2 mg/kg, po; assay type: ADME, organism-based; details: in vivo
[20] = Half life in dog at 0.25 mg/kg, iv and 2 mg/kg, po; assay type: ADME, organism-based, Canis lupus familiaris; details: in vivo
[21] = AUC in dog at 0.25 mg/kg, iv and 2 mg/kg, po; assay type: ADME, organism-based, Canis lupus familiaris; details: plasma
[22] = Clearance in dog at 0.25 mg/kg, iv and 2 mg/kg, po; assay type: ADME, organism-based, Canis lupus familiaris; details: in vivo
[23] = tested on: Rattus norvegicus; test: Antiarthritic activity in rat assessed as reduction of LPS-induced TNFalpha level at 30 mg/kg after 24 hrs; assay type: functional, organism-based; parameters: dose 30 mg/kg
[24] = tested on: Rattus norvegicus; test: Antiarthritic activity in rat assessed as reduction of LPS-induced TNFalpha level at 3 mg/kg after 4 hrs; assay type: functional; parameters: scale not given: the % may be the effect or the level left
[25] = tested on: Rattus norvegicus; test: Antiarthritic activity in rat assessed as reduction of LPS-induced TNFalpha level at 1 mg/kg after 24 hrs; assay type: functional, organism-based; parameters: dose 1 mg/kg
[26] = tested on: Rattus norvegicus; test: Antiarthritic activity in rat assessed as reduction of LPS-induced TNFalpha level at 0.03 mg/kg after 4 hrs; assay type: functional; parameters: scale not given: the % may be the effect or the level left
[27] = tested on: Rattus norvegicus; test: Antiarthritic activity in rat assessed as reduction of LPS-induced TNFalpha level at 3 mg/kg after 24 hrs; assay type: functional, organism-based; parameters: dose 3 mg/kg
[28] = tested on: Rattus norvegicus; test: Antiarthritic activity in rat assessed as reduction of LPS-induced TNFalpha level at 10 mg/kg after 24 hrs; assay type: functional, organism-based; parameters: dose 10 mg/kg
[29] = tested on: Rattus norvegicus; test: Antiarthritic activity in rat assessed as reduction of LPS-induced TNFalpha level at 1 mg/kg after 4 hrs; assay type: functional; parameters: scale not given: the % may be the effect or the level left

Structure (SMILES): Nc1nnc(-c2cc(F)c(-c3c(=O)ccn4c(-c5ccc(F)cc5F)cccc34)c(F)c2)o1
- EC50 [1]: > 30000 nM
- IC50 [2]: 270 nM
- IC50 [3]: 1580 nM
- IC50 [4]: 6.8 nM

Structure (SMILES): O=c1ccn2c(-c3ccc(F)cc3F)cccc2c1-c1c(F)cc(-c2nnco2)cc1F
- EC50 [1]: > 30000 nM
- IC50 [2]: 265 nM
- IC50 [3]: 775 nM
- IC50 [4]: 5.3 nM

Structure (SMILES): N#Cc1cc(F)c(-c2c(=O)ccn3c(-c4ccc(F)cc4F)cccc23)c(F)c1
- EC50 [1]: > 30000 nM
- IC50 [2]: 6490 nM
- IC50 [5]: Not Active
- IC50 [4]: 1.5 nM

Structure (SMILES): COC(=O)c1cc(F)c(-c2c(=O)ccn3c(-c4ccc(F)cc4F)cccc23)c(F)c1
- EC50 [1]: > 30000 nM
- IC50 [2]: 6490 nM
- IC50 [5]: Not Active
- IC50 [4]: 1.5 nM

Structure (SMILES): O=C1NCc2c(-c3ccc(F)cc3F)cc(N3CCNCC3)cc2N1c1c(Cl)cccc1Cl
- logD [6]: 4.2

Structure (SMILES): O=c1ccn2c(-c3ccc(F)cc3F)cccc2c1-c1c(F)cccc1F
- half-life [7]: > 100 h
- half-life [8]: 20 h
- logD [6]: 2.5

Structure (SMILES): Nc1cc2c(ccc(=O)n2-c2c(F)cccc2F)c(-c2ccc(F)cc2F)n1
- IC50 [9]: 4600 nM
- Ki [10]: 5100 nM
- IC50 [4]: 0.6 nM
- logD [6]: 2.7

Structure (SMILES): O=c1ccn2c(-c3ccc(F)cc3F)cccc2c1-c1cc(-c2nnco2)ccc1F
- IC50 [2]: 25.4 nM
- AUC [11]: 5.1 µM·h
- IC50 [9]: > 30000 nM
- clearance [12]: 3.6 mL/min/kg
- bioavailability [13]: 47%
- half-life [14]: 5.9 h
- half-life [15]: 1.8 h
- bioavailability [16]: 100%
- IC50 [3]: 45.4 nM
- AUC [17]: 25.6 µM·h
- bioavailability [18]: 45%
- clearance [19]: 3.1 mL/min/kg
- Ki [10]: > 20000 nM
- half-life [20]: 30.4 h
- AUC [21]: 49.3 µM·h
- IC50 [4]: 13 nM
- clearance [22]: 0.49 mL/min/kg

Structure (SMILES): Cc1noc(-c2cc(F)c(-c3c(=O)ccn4c(-c5ccc(F)cc5F)cccc34)c(F)c2)n1
- EC50 [1]: > 30000 nM
- IC50 [2]: 430 nM
- IC50 [3]: 690 nM
- IC50 [4]: 8.8 nM

Structure (SMILES): Cc1nnc(-c2ccc(F)c(-c3c(=O)ccn4c(-c5ccc(F)cc5F)cccc34)c2)o1
- AUC [11]: 23.9 µM·h
- clearance [12]: 0.9 mL/min/kg
- Activity [23]: Active
- bioavailability [13]: 55%
- half-life [14]: 9.5 h
- half-life [15]: 1.4 h
- Activity [24]: >90%
- Activity [25]: Active
- bioavailability [16]: 68%
- Activity [26]: 50%
- Activity [27]: Active
- AUC [17]: 21.7 µM·h
- bioavailability [18]: 66%
- Activity [28]: Active
- clearance [19]: 2.4 mL/min/kg
- half-life [20]: 12 h
- AUC [21]: 58.6 µM·h
- clearance [22]: 0.88 mL/min/kg
- Activity [29]: >90%

Structure (SMILES): NC(=O)c1cc(F)c(-c2c(=O)ccn3c(-c4ccc(F)cc4F)cccc23)c(F)c1
- EC50 [1]: > 30000 nM
- IC50 [2]: 180 nM
- IC50 [3]: 980 nM
- IC50 [4]: 20 nM
